SMILES strings stand for the structures. Where two headings read alike, the source gives them in different places.

The target of assay [1] is T1, BaKynB (Bacillus anthracis, UniProt Q81PP9).
T1 construct: gene kynB
The assay can be described thus: biochemical.

Assay [2] concerns the target T1, BaKynB. Briefly: biochemical. The source holds these as a separate data set.

T1 sequence (Q81PP9 whole entry, looked up): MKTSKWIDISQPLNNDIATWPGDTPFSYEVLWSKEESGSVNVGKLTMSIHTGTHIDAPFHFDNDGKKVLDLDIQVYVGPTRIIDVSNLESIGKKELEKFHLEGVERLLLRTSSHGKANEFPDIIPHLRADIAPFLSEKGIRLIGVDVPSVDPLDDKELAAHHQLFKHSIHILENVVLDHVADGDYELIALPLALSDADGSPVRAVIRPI

The term Kd denotes the concentration at which binding is half-saturated. Low readings indicate tighter binding, high ones weaker binding. Compound `CC(=O)c1ccccc1N` [2-aminoacetophenone] had a Kd on BaKynB [1] of about 50 µM.
`Nc1ccccc1C(=O)C[C@H](N)C(=O)O` [L-kynurenine, (S)-2-amino-4-(2-aminophenyl)-4-oxobutanoic acid] yielded a Kd on BaKynB [2] of about 60 µM.

The values above are taken from article PMC4243253 (Biochemical Journal, 2014).
